The text below walks through data of patent US20230143604A1, “QW DOSING OF GIP RECEPTOR AGONIST PEPTIDE COMPOUNDS AND USES THEREOF” (TAKEDA PHARMACEUTICAL COMPANY LIMITED, priority 2020, published 2023).

Each structure is given as a SMILES string. Starred links: 1 amine or outer side, 2 acyl side, 3 side chain; linkers in the order of their positions; H or OH if unused. Positions of bridges follow the written chain, without caps; N, C: chain ends. Non-standard residues stand in square brackets, D forms with d. Residues, ends and D or L forms follow the SMILES beside them. Groups on a side chain read outwards from the residue. Chains are numbered I, II in the order given. *: point of attachment. C18 diacid = O=C(O)CCCCCCCCCCCCCCCCC(=O)*; C17 diacid = O=C(O)CCCCCCCCCCCCCCCC(=O)*; γGlu = O=C(O)[C@H](CCC(=O)[*:2])N[*:1]; NMeY = CN[C@@H](Cc1ccc(O)cc1)C(=O)O; AEEA = NCCOCCOCC(=O)O; Aib = CC(C)(N)C(=O)O

The nature of the series: physchem. The essentials: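 3 mg of peptide treated with 100 μL portions of 200 mM phosphate buffer pH 7.4, sonicating/vortexing up to 1 min, with further buffer added until fully dissolved. Solubility then quantified by HPLC.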

Regarding `CC[C@H](C)[C@H](NC(=O)[C@H](CO)NC(=O)[C@H](Cc1ccc(O)cc1)NC(=O)[C@H](CC(=O)O)NC(=O)[C@H](CO)NC(=O)[C@@H](NC(=O)[C@H](Cc1ccccc1)NC(=O)[C@@H](NC(=O)CNC(=O)[C@H](CCC(=O)O)NC(=O)C(C)(C)NC(=O)[C@H](Cc1ccc(O)cc1)NC)[C@@H](C)O)[C@@H](C)CC)C(=O)N[C@@H](C)C(=O)N[C@@H](CC(C)C)C(=O)N[C@@H](CC(=O)O)C(=O)N[C@@H](CCCNC(=N)N)C(=O)NC(C)(C)C(=O)N[C@@H](C)C(=O)N[C@@H](CCC(N)=O)C(=O)NC(C)(C)C(=O)N[C@@H](CCCCNC(=O)CNC(=O)CNC(=O)[C@@H]1CCCN1C(=O)[C@H](C)NC(=O)[C@@H]1CCCN1C(=O)[C@H](C)NC(=O)[C@@H]1CCCN1C(=O)CC[C@H](NC(=O)CCCCCCCCCCCCCCCCC(=O)O)C(=O)O)C(=O)N[C@@H](Cc1ccccc1)C(=O)N[C@H](C(=O)N[C@@H](CC(N)=O)C(=O)N[C@@H](Cc1c[nH]c2ccccc12)C(=O)N[C@@H](CC(C)C)C(=O)N[C@@H](CC(C)C)C(=O)N[C@@H](C)C(=O)N[C@@H](CCC(N)=O)C(=O)N[C@@H](CO)C(=O)N1CCC[C@H]1C(=O)NCC(=O)O)C(C)C` [Compound 117] (I: H-[NMeY][Aib]EGTFISDYSIALDR[Aib]AQ[Aib]KFVNWLLAQSPG-OH / II: {C18 diacid-γGlu}-PAPAPGG; amide I:21-II:C), the solubility by setting is: (pH 7.4) at least 15 mg/mL; (pH 7.4, aqueous buffer) at least 30 mg/mL.

`CC[C@H](C)[C@H](NC(=O)[C@H](CO)NC(=O)[C@H](Cc1ccc(O)cc1)NC(=O)[C@H](CC(=O)O)NC(=O)[C@H](CO)NC(=O)[C@@H](NC(=O)[C@H](Cc1ccccc1)NC(=O)[C@@H](NC(=O)CNC(=O)[C@H](CCC(=O)O)NC(=O)C(C)(C)NC(=O)[C@H](Cc1ccc(O)cc1)NC)[C@@H](C)O)[C@@H](C)CC)C(=O)N[C@@H](C)C(=O)N[C@@H](CCCCNC(=O)CNC(=O)CNC(=O)CNC(=O)CNC(=O)CNC(=O)CCCCCCCCCCCCCCCCC(=O)O)C(=O)N[C@@H](CC(=O)O)C(=O)N[C@@H](CCCNC(=N)N)C(=O)NC(C)(C)C(=O)N[C@@H](C)C(=O)N[C@@H](CCC(N)=O)C(=O)NC(C)(C)C(=O)N[C@@H](CC(=O)O)C(=O)N[C@@H](Cc1ccccc1)C(=O)N[C@H](C(=O)N[C@@H](CCC(=O)O)C(=O)N[C@@H](Cc1c[nH]c2ccccc12)C(=O)N[C@@H](CC(C)C)C(=O)N[C@@H](CC(C)C)C(=O)N[C@@H](C)C(=O)N[C@@H](CCC(N)=O)C(=O)N[C@@H](CO)C(=O)N1CCC[C@H]1C(=O)NCC(=O)O)C(C)C` [Compound 118] displayed a solubility (pH 7.4) of at least 15 mg/mL and a solubility (pH 7.4, aqueous buffer) of at least 30 mg/mL.

Turning to `CC[C@H](C)[C@H](NC(=O)[C@H](CO)NC(=O)[C@H](Cc1ccc(O)cc1)NC(=O)[C@H](CC(=O)O)NC(=O)[C@H](CO)NC(=O)[C@@H](NC(=O)[C@H](Cc1ccccc1)NC(=O)[C@@H](NC(=O)CNC(=O)[C@H](CCC(=O)O)NC(=O)C(C)(C)NC(=O)[C@H](Cc1ccc(O)cc1)NC)[C@@H](C)O)[C@@H](C)CC)C(=O)N[C@@H](C)C(=O)N[C@@H](CC(C)C)C(=O)N[C@@H](CC(=O)O)C(=O)N[C@@H](CCCNC(=N)N)C(=O)NC(C)(C)C(=O)N[C@@H](C)C(=O)N[C@@H](CCC(N)=O)C(=O)NC(C)(C)C(=O)N[C@@H](CCCCNC(=O)COCCOCCNC(=O)COCCOCCNC(=O)CC[C@H](NC(=O)CC[C@H](NC(=O)CCCCCCCCCCCCCCCCC(=O)O)C(=O)O)C(=O)O)C(=O)N[C@@H](Cc1ccccc1)C(=O)N[C@H](C(=O)N[C@@H](CCC(=O)O)C(=O)N[C@@H](Cc1c[nH]c2ccccc12)C(=O)N[C@@H](CC(C)C)C(=O)N[C@@H](CC(C)C)C(=O)N[C@@H](C)C(=O)N[C@@H](CCC(N)=O)C(=O)N[C@@H](CO)C(=O)N1CCC[C@H]1C(=O)NCC(=O)O)C(C)C` [Compound 119] (H-[NMeY][Aib]EGTFISDYSIALDR[Aib]AQ[Aib]K([AEEA-AEEA-γGlu-γGlu-C18 diacid])FVEWLLAQSPG-OH), the solubility by setting is: (pH 7.4) at least 15 mg/mL; (pH 7.4, aqueous buffer) at least 30 mg/mL.

Regarding `CC[C@H](C)[C@H](NC(=O)[C@H](CO)NC(=O)[C@H](Cc1ccc(O)cc1)NC(=O)[C@H](CC(=O)O)NC(=O)[C@H](CO)NC(=O)[C@@H](NC(=O)[C@H](Cc1ccccc1)NC(=O)[C@@H](NC(=O)CNC(=O)[C@H](CCC(=O)O)NC(=O)C(C)(C)NC(=O)[C@H](Cc1ccc(O)cc1)NC)[C@@H](C)O)[C@@H](C)CC)C(=O)N[C@@H](C)C(=O)N[C@@H](CC(C)C)C(=O)N[C@@H](CC(=O)O)C(=O)N[C@@H](CCCNC(=N)N)C(=O)NC(C)(C)C(=O)N[C@@H](C)C(=O)N[C@@H](CCC(N)=O)C(=O)NC(C)(C)C(=O)N[C@@H](CCCCNC(=O)COCCOCCNC(=O)COCCOCCNC(=O)CC[C@H](NC(=O)CC[C@H](NC(=O)CCCCCCCCCCCCCCCC(=O)O)C(=O)O)C(=O)O)C(=O)N[C@@H](Cc1ccccc1)C(=O)N[C@H](C(=O)N[C@@H](CC(N)=O)C(=O)N[C@@H](Cc1c[nH]c2ccccc12)C(=O)N[C@@H](CC(C)C)C(=O)N[C@@H](CC(C)C)C(=O)N[C@@H](C)C(=O)N[C@@H](CCC(N)=O)C(=O)N[C@@H](CO)C(=O)N1CCC[C@H]1C(=O)NCC(=O)O)C(C)C` [Compound 125] (H-[NMeY][Aib]EGTFISDYSIALDR[Aib]AQ[Aib]K([AEEA-AEEA-γGlu-γGlu-C17 diacid])FVNWLLAQSPG-OH), the solubility runs as follows: (pH 7.4) at least 15 mg/mL; (pH 7.4, aqueous buffer) at least 30 mg/mL.

As for `CC[C@H](C)[C@H](NC(=O)[C@H](Cc1ccccc1)NC(=O)[C@@H](NC(=O)CNC(=O)[C@H](CCC(=O)O)NC(=O)C(C)(C)NC(=O)[C@H](Cc1ccc(O)cc1)NC)[C@@H](C)O)C(=O)N[C@@H](CO)C(=O)N[C@@H](CC(=O)O)C(=O)N[C@@H](Cc1ccc(O)cc1)C(=O)N[C@@H](CO)C(=O)N[C@H](C(=O)NC(C)(C)C(=O)N[C@@H](CC(C)C)C(=O)N[C@@H](CC(=O)O)C(=O)N[C@@H](CCCNC(=N)N)C(=O)NC(C)(C)C(=O)N[C@@H](C)C(=O)N[C@@H](CCC(N)=O)C(=O)NC(C)(C)C(=O)N[C@@H](CCCCNC(=O)COCCOCCNC(=O)COCCOCCNC(=O)CC[C@H](NC(=O)CC[C@H](NC(=O)CCCCCCCCCCCCCCCC(=O)O)C(=O)O)C(=O)O)C(=O)N[C@@H](Cc1ccccc1)C(=O)N[C@H](C(=O)N[C@@H](CC(N)=O)C(=O)N[C@@H](Cc1c[nH]c2ccccc12)C(=O)N[C@@H](CC(C)C)C(=O)N[C@@H](CC(C)C)C(=O)N[C@@H](C)C(=O)N[C@@H](CCC(N)=O)C(=O)N[C@@H](CO)C(=O)N1CCC[C@H]1C(=O)NCC(=O)O)C(C)C)[C@@H](C)CC` [Compound 126] (H-[NMeY][Aib]EGTFISDYSI[Aib]LDR[Aib]AQ[Aib]K([AEEA-AEEA-γGlu-γGlu-C17 diacid])FVNWLLAQSPG-OH), the solubility runs as follows: (pH 7.4) at least 15 mg/mL; (pH 7.4, aqueous buffer) at least 30 mg/mL.

For the molecule `CC[C@H](C)[C@H](NC(=O)[C@H](Cc1ccccc1)NC(=O)[C@@H](NC(=O)CNC(=O)[C@H](CCC(=O)O)NC(=O)C(C)(C)NC(=O)[C@H](Cc1ccc(O)cc1)NC)[C@@H](C)O)C(=O)N[C@@H](CO)C(=O)N[C@@H](CC(=O)O)C(=O)N[C@@H](Cc1ccc(O)cc1)C(=O)N[C@@H](CO)C(=O)N[C@H](C(=O)NC(C)(C)C(=O)N[C@@H](CC(C)C)C(=O)N[C@@H](CC(=O)O)C(=O)N[C@@H](CCCNC(=N)N)C(=O)NC(C)(C)C(=O)N[C@@H](C)C(=O)N[C@@H](CCC(N)=O)C(=O)NC(C)(C)C(=O)N[C@@H](CCCCNC(=O)COCCOCCNC(=O)COCCOCCNC(=O)CC[C@H](NC(=O)CC[C@H](NC(=O)CCCCCCCCCCCCCCCC(=O)O)C(=O)O)C(=O)O)C(=O)N[C@@H](Cc1ccccc1)C(=O)N[C@H](C(=O)N[C@@H](CC(N)=O)C(=O)N[C@@H](Cc1c[nH]c2ccccc12)C(=O)N[C@@H](CC(C)C)C(=O)N[C@@H](CC(C)C)C(=O)N[C@@H](C)C(=O)N[C@@H](CCC(N)=O)C(=O)N[C@@H](CCCNC(=N)N)C(=O)NCC(=O)O)C(C)C)[C@@H](C)CC` [Compound 127] (H-[NMeY][Aib]EGTFISDYSI[Aib]LDR[Aib]AQ[Aib]K([AEEA-AEEA-γGlu-γGlu-C17 diacid])FVNWLLAQRG-OH), the solubility runs as follows: (pH 7.4) at least 15 mg/mL; (pH 7.4, aqueous buffer) at least 30 mg/mL.

The molecule `CC[C@H](C)[C@H](NC(=O)[C@H](CCCCN)NC(=O)[C@H](CC(=O)O)NC(=O)[C@H](CC(C)C)NC(=O)C(C)(C)NC(=O)[C@@H](NC(=O)[C@H](CO)NC(=O)[C@H](Cc1ccc(O)cc1)NC(=O)[C@H](CC(=O)O)NC(=O)[C@H](CO)NC(=O)[C@@H](NC(=O)[C@H](Cc1ccccc1)NC(=O)[C@@H](NC(=O)CNC(=O)[C@H](CCC(=O)O)NC(=O)C(C)(C)NC(=O)[C@@H](N)Cc1ccc(O)cc1)[C@@H](C)O)[C@@H](C)CC)[C@@H](C)CC)C(=O)N[C@@H](C)C(=O)N[C@@H](CCC(N)=O)C(=O)N[C@@H](CCC(N)=O)C(=O)N[C@@H](CCCCNC(=O)COCCOCCNC(=O)COCCOCCNC(=O)CC[C@H](NC(=O)CC[C@H](NC(=O)CCCCCCCCCCCCCCCC(=O)O)C(=O)O)C(=O)O)C(=O)N[C@@H](Cc1ccccc1)C(=O)N[C@H](C(=O)N[C@@H](CCC(=O)O)C(=O)N[C@@H](Cc1c[nH]c2ccccc12)C(=O)N[C@@H](CC(C)C)C(=O)N[C@@H](CC(C)C)C(=O)N[C@@H](C)C(=O)N[C@@H](CCC(N)=O)C(=O)N[C@@H](CCCNC(=N)N)C(=O)NCC(=O)O)C(C)C` [Compound 129] (H-Y[Aib]EGTFISDYSI[Aib]LDKIAQQK([AEEA-AEEA-γGlu-γGlu-C17 diacid])FVEWLLAQRG-OH) came in with a solubility (pH 7.4) of at least 15 mg/mL and a solubility (pH 7.4, aqueous buffer) of at least 30 mg/mL.

Broadly, the solubility is the concentration that dissolves in the medium under given conditions.
